Laboratory results as given in patent publication EP0745599A2, “1-(3-Heterocyclylphenyl)-s-triazine-2,4,6-oxo or thiotrione herbicidal agents” (American Cyanamid Company, priority 1995, dated 1996).

Legend:
Type in all cases: in vivo
Details in all cases: rated four to five weeks after treatment
[1] = tested on: ECHINOCHLOA CRUS-GALLI, (L) BEAU; experiment: Postemergence herbicidal evaluation, ECHCG (Barnyardgrass)
Experimental: (§1) In the tests, seedling plants are grown in jiffy flats for about two weeks. The test compounds are dispersed in 50/50 acetone/water mixtures containing 0.5% TWEEN®20, a polyoxyethylene sorbitan monolaurate surfactant of Atlas Chemical Industries, in sufficient quantities to provide the equivalent of about 0.125 kg to 0.500 kg per hectare of active compound when applied to the plants through a spray nozzle operating at 40 psi for a predetermined time. After spraying, the plants are placed on greenhouse benches and are cared for in the usual manner, commensurate with conventional greenhouse practices. From four to five weeks after treatment, the seedling plants are examined and rated according to the rating system set forth below. Where more than one test is involved for a given compound, the data are averaged.
(§2) Results of herbicide evaluation are expressed on a rating scale (0-9). The scale is based upon a visual observation of plant stand, vigor, malformation, size, chlorosis and overall plant appearance as compared with a control.

[2] = tested on: SETARIA VIRIDIS, (L) BEAU; experiment: Postemergence herbicidal evaluation, SETVI (Foxtail, Green)
Experimental: as §1, §2

[3] = tested on: ABUTILON THEOPHRASTI, MEDIC.; experiment: Preemergence herbicidal evaluation, ABUTH (Velvetleaf); design: key to ABUTH: visual rating scale 0-9 vs control
Source text: as §2
(§3) The preemergence herbicidal activity of the test compounds of the present invention is exemplified by the following tests in which the seeds of a variety of monocotyledonous and dicotyledonous plants are separately mixed with potting soil and planted on top of approximately one inch of soil in separate pint cups. After planting, the cups are sprayed with the selected aqueous acetone solution containing test compound in sufficient quantity to provide the equivalent of about 0.125 to 0.50 kg per hectare of test compound per cup. The treated cups are then placed on greenhouse benches, watered and cared for in accordance with conventional greenhouse procedures. From four to five weeks after treatment, the tests are terminated and each cup is examined and rated according to the rating system provided in Example 42.

[4] = tested on: AMBROSIA ARTEMISIIFOLIA, L.; experiment: Preemergence herbicidal evaluation, AMBEL (Ragweed, Common); design: key to AMBEL: visual rating scale 0-9 vs control
Source text: as §2, §3

IPOMOEA SPP. = experiment: Preemergence herbicidal evaluation, IPOSS (Morningglory Spp.); design: key to IPOSS: visual rating scale 0-9 vs control
Source text: as §2, §3

[5] = tested on: GLYCINE MAX(L)MERR. CV. WILLIAMS; experiment: Preemergence herbicidal evaluation, GLXMAW (Soybean, Williams); design: key to GLXMAW: visual rating scale 0-9 vs control
Source text: as §2, §3

[6] = tested on: ORYZA SATIVA, L. TEBONNET; experiment: Preemergence herbicidal evaluation, ORYSAT (Rice, Tebonnet); design: key to ORYSAT: visual rating scale 0-9 vs control
Source text: as §2, §3

[7] = tested on: TRITICUM AESTIVUM, CV. APOLLO; experiment: Preemergence herbicidal evaluation, TRZAWO (Wheat, Winter, CV. APOLLO); design: key to TRZAWO: visual rating scale 0-9 vs control
Source text: as §2, §3

ZEA MAYS L. = experiment: Preemergence herbicidal evaluation, ZEAMX (Corn, Field); design: key to ZEAMX: visual rating scale 0-9 vs control
Source text: as §2, §3

CASSIA OBTUSIFOLIA, L. = experiment: Preemergence herbicidal evaluation, CASOB (Sicklepod); design: key to CASOB: visual rating scale 0-9 vs control
Source text: as §2, §3

CHENOPODIUM ALBUM, L. = experiment: Preemergence herbicidal evaluation, CHEAL (Lambsquarters, Common); design: key to CHEAL: visual rating scale 0-9 vs control
Source text: as §2, §3

GALIUM APARINE = experiment: Preemergence herbicidal evaluation, GALAP (Galium); design: key to GALAP: visual rating scale 0-9 vs control
Source text: as §2, §3

[8] = tested on: ECHINOCHLOA CRUS-GALLI, (L) BEAU; experiment: Preemergence herbicidal evaluation, ECHCG (Barnyardgrass); design: key to ECHCG: visual rating scale 0-9 vs control
Source text: as §2, §3

[9] = tested on: SETARIA VIRIDIS, (L) BEAU; experiment: Preemergence herbicidal evaluation, SETVI (Foxtail, Green); design: key to SETVI: visual rating scale 0-9 vs control
Source text: as §2, §3

In the case of `Cn1c(=O)n(CC(=O)O)c(=O)n(-c2cc(N3C(=O)C4=C(CCCC4)C3=O)c(F)cc2Cl)c1=O` [Compound 3, 3-[2-Chloro-5-(1-cyclohexene-1,2-dicarbox-imido)-4-fluorophenyl]tetrahydro-5-methyl-2,4,6-trioxo-s-triazine-1(2H)-acetic acid], the “Herbicide rating (0-9) ECHCG” value ([1]; 0.125 kg/ha) is reported as 0.0, the “Herbicide rating (0-9) ECHCG” value ([1]; 0.250 kg/ha) is reported as 0.0 and the “Herbicide rating (0-9) ECHCG” value ([1]; 0.500 kg/ha) is reported as 0.0. The “Herbicide rating (0-9) SETVI” value ([2]; 0.125 kg/ha) was 0.0, the “Herbicide rating (0-9) SETVI” value ([2]; 0.250 kg/ha) was 0.0 and the “Herbicide rating (0-9) SETVI” value ([2]; 0.500 kg/ha) was 0.0. The “Herbicide rating (0-9) ABUTH” value ([3]; 0.125 kg/ha) was 0.0, the “Herbicide rating (0-9) ABUTH” value ([3]; 0.250 kg/ha) was 0.0 and the “Herbicide rating (0-9) ABUTH” value ([3]; 0.500 kg/ha) was 0.0. For the same compound, the “Herbicide rating (0-9) AMBEL” value ([4]; 0.125 kg/ha) was 0.0, the “Herbicide rating (0-9) AMBEL” value ([4]; 0.250 kg/ha) was 0.0 and the “Herbicide rating (0-9) AMBEL” value ([4]; 0.500 kg/ha) was 0.0. For the same compound, the “Herbicide rating (0-9) IPOSS” value (IPOMOEA SPP.; 0.125 kg/ha) was 0.0, the “Herbicide rating (0-9) IPOSS” value (IPOMOEA SPP.; 0.250 kg/ha) was 0.0 and the “Herbicide rating (0-9) IPOSS” value (IPOMOEA SPP.; 0.500 kg/ha) was 0.0. For the same compound, the “Herbicide rating (0-9) GLXMAW” value ([5]; 0.125 kg/ha) was 0.0, the “Herbicide rating (0-9) GLXMAW” value ([5]; 0.250 kg/ha) was 0.0 and the “Herbicide rating (0-9) GLXMAW” value ([5]; 0.500 kg/ha) was 0.0. The “Herbicide rating (0-9) ORYSAT” value ([6]; 0.125 kg/ha) was 0.0, the “Herbicide rating (0-9) ORYSAT” value ([6]; 0.250 kg/ha) was 0.0 and the “Herbicide rating (0-9) ORYSAT” value ([6]; 0.500 kg/ha) was 0.0. The “Herbicide rating (0-9) TRZAWO” value ([7]; 0.125 kg/ha) was 0.0, the “Herbicide rating (0-9) TRZAWO” value ([7]; 0.250 kg/ha) was 0.0 and the “Herbicide rating (0-9) TRZAWO” value ([7]; 0.500 kg/ha) was 0.0. The “Herbicide rating (0-9) ZEAMX” value (ZEA MAYS L.; 0.125 kg/ha) was 0.0, the “Herbicide rating (0-9) ZEAMX” value (ZEA MAYS L.; 0.250 kg/ha) was 0.0 and the “Herbicide rating (0-9) ZEAMX” value (ZEA MAYS L.; 0.500 kg/ha) was 0.0.

In the case of `C#CCn1c(=O)n(C)c(=O)n(-c2cc(N3C(=O)C4=C(CCCC4)C3=O)c(F)cc2Cl)c1=O` [Compound 16, N-{4-Chloro-2-fluoro-5-[hexahydro-3-methyl-2,4,6-trioxo-5-(2-propynyl)-s-triazin-1-yl]phenyl}-1-cyclohexene-1,2-dicarboximide], the “Herbicide rating (0-9) ECHCG” value ([1]; 0.125 kg/ha) is reported as 0.0, the “Herbicide rating (0-9) ECHCG” value ([1]; 0.250 kg/ha) is reported as 0.0 and the “Herbicide rating (0-9) ECHCG” value ([1]; 0.500 kg/ha) is reported as 0.0. The “Herbicide rating (0-9) SETVI” value ([2]; 0.125 kg/ha) was 0.0, the “Herbicide rating (0-9) SETVI” value ([2]; 0.250 kg/ha) was 0.0 and the “Herbicide rating (0-9) SETVI” value ([2]; 0.500 kg/ha) was 0.0. The ABUTH ([3]; Rate 0.125 kg/ha) was 2.0, the ABUTH ([3]; Rate 0.250 kg/ha) was 6.0 and the ABUTH ([3]; Rate 0.500 kg/ha) was 9.0. For the same compound, the AMBEL ([4]; Rate 0.125 kg/ha) was 0.0, the AMBEL ([4]; Rate 0.250 kg/ha) was 0.0 and the AMBEL ([4]; Rate 0.500 kg/ha) was 2.0. The CASOB (CASSIA OBTUSIFOLIA, L.; Rate 0.125 kg/ha) was 0.0, the CASOB (CASSIA OBTUSIFOLIA, L.; Rate 0.250 kg/ha) was 0.0 and the CASOB (CASSIA OBTUSIFOLIA, L.; Rate 0.500 kg/ha) was 0.0. For the same compound, the CHEAL (CHENOPODIUM ALBUM, L.; Rate 0.125 kg/ha) was 6.0, the CHEAL (CHENOPODIUM ALBUM, L.; Rate 0.250 kg/ha) was 8.0 and the CHEAL (CHENOPODIUM ALBUM, L.; Rate 0.500 kg/ha) was 9.0. The IPOSS (IPOMOEA SPP.; Rate 0.125 kg/ha) was 0.0, the IPOSS (IPOMOEA SPP.; Rate 0.250 kg/ha) was 0.0 and the IPOSS (IPOMOEA SPP.; Rate 0.500 kg/ha) was 0.0. For the same compound, the GALAP (GALIUM APARINE; Rate 0.125 kg/ha) was 0.0, the GALAP (GALIUM APARINE; Rate 0.250 kg/ha) was 0.0 and the GALAP (GALIUM APARINE; Rate 0.500 kg/ha) was 4.0. The ECHCG ([8]; Rate 0.125 kg/ha) was 0.0, the ECHCG ([8]; Rate 0.250 kg/ha) was 0.0 and the ECHCG ([8]; Rate 0.500 kg/ha) was 0.0. The SETVI ([9]; Rate 0.125 kg/ha) was 0.0, the SETVI ([9]; Rate 0.250 kg/ha) was 0.0 and the SETVI ([9]; Rate 0.500 kg/ha) was 3.0. It also gave a GLXMAW ([5]; Rate 0.125 kg/ha) of 0.0, a GLXMAW ([5]; Rate 0.250 kg/ha) of 0.0 and a GLXMAW ([5]; Rate 0.500 kg/ha) of 0.0. It also gave an ORYSAT ([6]; Rate 0.125 kg/ha) of 0.0, an ORYSAT ([6]; Rate 0.250 kg/ha) of 0.0 and an ORYSAT ([6]; Rate 0.500 kg/ha) of 0.0. For the same compound, the TRZAWO ([7]; Rate 0.125 kg/ha) was 0.0, the TRZAWO ([7]; Rate 0.250 kg/ha) was 0.0 and the TRZAWO ([7]; Rate 0.500 kg/ha) was 0.0. For the same compound, the ZEAMX (ZEA MAYS L.; Rate 0.125 kg/ha) was 0.0, the ZEAMX (ZEA MAYS L.; Rate 0.250 kg/ha) was 1.0 and the ZEAMX (ZEA MAYS L.; Rate 0.500 kg/ha) was 2.0.
